Results published in patent US20050250137A1, “Molecular targets of cancer and aging” (priority 2002, published 2005).

Assay: GoMiner gene ontology analysis of differentially regulated genes
Set-up: species or system human
[1] = Cellular component: Chromosome, GO 0005694, Total 108
[2] = Cellular component: Cytoplasm, GO 0005737, Total 1705
[3] = Cellular component: Cytoplasmic vesicle, GO 0016023, Total 59
[4] = Cellular component: Cytoskeleton, GO 0005856, Total 334
[5] = Cellular component: Cytosol, GO 0005829, Total 176
[6] = Cellular component: Endoplasmic reticulum, GO 0005783, Total 244
[7] = Cellular component: Extracellular, GO 0005576, Total 586
[8] = Cellular component: Membrane, GO 0016020, Total 1976
[9] = Cellular component: Mitochondrion, GO 0005739, Total 315
[10] = Cellular component: Nucleus, GO 0005634, Total 1483
[11] = Cellular component: Ribosome, GO 0005840, Total 61
[12] = Cellular component: actin cytoskeleton, GO 0015629, Total 120
[13] = Cellular component: endomembrane system, GO 0012505, Total 112
[14] = Cellular component: extracellular matrix, GO 0005578, Total 181
[15] = Cellular component: extracellular space, GO 0005615, Total 228
[16] = Cellular component: integral to membrane, GO 0016021, Total 1549
[17] = Cellular component: microtubule cytoskeleton, GO 0015630, Total 78
[18] = Cellular component: mitochondrial membrane, GO 0005740, Total 75
[19] = Cellular component: nuclear membrane, GO 0005635, Total 50
[20] = Cellular component: nucleolus, GO 0005730, Total 39
[21] = Cellular component: nucleoplasm, GO 0005654, Total 91
[22] = Cellular component: plasma membrane, GO 0005886, Total 1041
[23] = Molecular function: Apoptosis regulator activity, GO 0016329, Total 44
[24] = Molecular function: Binding, GO 0005488, Total 3368
[25] = Molecular function: Catalytic activity, GO 0003824, Total 2129
[26] = Molecular function: Cell adhesion molecule activity, GO 0005194, Total 209
[27] = Molecular function: Defense/immunity protein activity, GO 0003793, Total 36
[28] = Molecular function: Enzyme regulator activity, GO 0030234, Total 306
[29] = Molecular function: Motor activity, GO 0003774, Total 61
[30] = Molecular function: Obsolete molecular function, GO 0008369, Total 419
[31] = Molecular function: Signal transducer activity, GO 0004871, Total 1157
[32] = Molecular function: Structural molecule activity, GO 0005198, Total 333
[33] = Molecular function: Transcription regulator activity, GO 0030528, Total 630
[34] = Molecular function: Translation regulator activity, GO 0045182, Total 43
[35] = Molecular function: Transporter activity, GO 0005215, Total 822
[36] = Molecular function: carrier activity, GO 0005386, Total 239
[37] = Molecular function: electron transporter activity, GO 0005489, Total 138
[38] = Molecular function: enzyme inhibitor activity, GO 0004857, Total 132
[39] = Molecular function: extracellular matrix structural constituent, GO 0005201, Total 60
[40] = Molecular function: hydrolase activity, GO 0016787, Total 917
[41] = Molecular function: kinase activity, GO 0016301, Total 409
[42] = Molecular function: lipid binding, GO 0008289, Total 94
[43] = Molecular function: metal ion binding, GO 0046872, Total 631
[44] = Molecular function: nucleic acid binding, GO 0003676, Total 1232
[45] = Molecular function: nucleotide binding, GO 0000166, Total 763
[46] = Molecular function: oxidoreductase activity, GO 0016491, Total 320
[47] = Molecular function: protein binding, GO 0005515, Total 814
[48] = Molecular function: receptor activity, GO 0004872, Total 678
[49] = Molecular function: receptor binding (under Binding), GO 0005102, Total 301
[50] = Molecular function: receptor binding (under Signal transducer activity), GO 0005102, Total 301
[51] = Molecular function: receptor signaling protein activity, GO 0005057, Total 127
[52] = Molecular function: structural constituent of cytoskeleton, GO 0005200, Total 62
[53] = Molecular function: transcription factor activity, GO 0003700, Total 472
[54] = Molecular function: transferase activity, GO 0016740, Total 706

Nc1ncn([C@H]2C[C@H](O)[C@@H](CO)O2)c(=O)n1 [5-aza-dC, 5-aza-2′-deoxycytidine]
5-aza-dC Up (Cellular component: Cellular—component unknown, GO 0008372, Total 266): 8
5-aza-dC Down [1]: 0
5-aza-dC Up [1]: 10
5-aza-dC Down [2]: 9
5-aza-dC Up [2]: 30
5-aza-dC Down [3]: 0
5-aza-dC Up [3]: 2
5-aza-dC Down [4]: 1
5-aza-dC Up [4]: 4
5-aza-dC Down [5]: 1
5-aza-dC Up [5]: 2
5-aza-dC Down [6]: 1
5-aza-dC Up [6]: 4
5-aza-dC Down [7]: 1
5-aza-dC Up [7]: 23
5-aza-dC Down [8]: 6
5-aza-dC Up [8]: 24
5-aza-dC Down [9]: 2
5-aza-dC Up [9]: 3
5-aza-dC Down [10]: 7
5-aza-dC Up [10]: 44
5-aza-dC Down [11]: 1
5-aza-dC Up [11]: 1
5-aza-dC Down [12]: 0
5-aza-dC Up [12]: 0
5-aza-dC Down [13]: 0
5-aza-dC Up [13]: 1
5-aza-dC Down [14]: 0
5-aza-dC Up [14]: 4
5-aza-dC Down [15]: 0
5-aza-dC Up [15]: 13
5-aza-dC Down [16]: 5
5-aza-dC Up [16]: 18
5-aza-dC Down [17]: 1
5-aza-dC Up [17]: 0
5-aza-dC Down [18]: 0
5-aza-dC Up [18]: 0
5-aza-dC Down [19]: 0
5-aza-dC Up [19]: 0
5-aza-dC Down [20]: 0
5-aza-dC Up [20]: 1
5-aza-dC Down [21]: 0
5-aza-dC Up [21]: 5
5-aza-dC Down [22]: 3
5-aza-dC Up [22]: 13
5-aza-dC Down [23]: 0
5-aza-dC Up [23]: 4
5-aza-dC Down [24]: 9
5-aza-dC Up [24]: 83
5-aza-dC Down [25]: 12
5-aza-dC Up [25]: 43
5-aza-dC Down [26]: 0
5-aza-dC Up [26]: 3
5-aza-dC Down [27]: 0
5-aza-dC Up [27]: 1
5-aza-dC Down [28]: 5
5-aza-dC Up [28]: 6
5-aza-dC Down [29]: 0
5-aza-dC Up [29]: 0
5-aza-dC Down [30]: 1
5-aza-dC Up [30]: 12
5-aza-dC Down [31]: 5
5-aza-dC Up [31]: 23
5-aza-dC Down [32]: 3
5-aza-dC Up [32]: 4
5-aza-dC Down [33]: 0
5-aza-dC Up [33]: 18
5-aza-dC Down [34]: 1
5-aza-dC Up [34]: 1
5-aza-dC Down [35]: 1
5-aza-dC Up [35]: 14
5-aza-dC Down [36]: 1
5-aza-dC Up [36]: 3
5-aza-dC Down [37]: 1
5-aza-dC Up [37]: 5
5-aza-dC Down [38]: 2
5-aza-dC Up [38]: 4
5-aza-dC Down [39]: 0
5-aza-dC Up [39]: 1
5-aza-dC Down [40]: 4
5-aza-dC Up [40]: 25
5-aza-dC Down [41]: 3
5-aza-dC Up [41]: 2
5-aza-dC Down [42]: 0
5-aza-dC Up [42]: 1
5-aza-dC Down [43]: 0
5-aza-dC Up [43]: 12
5-aza-dC Down [44]: 6
5-aza-dC Up [44]: 36
5-aza-dC Down [45]: 3
5-aza-dC Up [45]: 10
5-aza-dC Down [46]: 2
5-aza-dC Up [46]: 6
5-aza-dC Down [47]: 1
5-aza-dC Up [47]: 26
5-aza-dC Down [48]: 4
5-aza-dC Up [48]: 11
5-aza-dC Down [49]: 1
5-aza-dC Up [49]: 14
5-aza-dC Down [50]: 1
5-aza-dC Up [50]: 14
5-aza-dC Down [51]: 0
5-aza-dC Up [51]: 0
5-aza-dC Down [52]: 0
5-aza-dC Up [52]: 1
5-aza-dC Down [53]: 0
5-aza-dC Up [53]: 12
5-aza-dC Down [54]: 5
5-aza-dC Up [54]: 8
